In patent publication US20260167656A1, “PHOSPHORAMIDATE COMPOUNDS AND USES THEREOF” (ALLORION THERAPEUTICS INC, priority 2022, published 2026):

Legend:
[1] = system: non-small cell lung cancer cell line H460; assay: In vitro human cancer cell line cytotoxicity (proliferation) assay in H460, CellTiter-Glo, 72 hours; format: cell-based; conditions: H460 cells, DMSO condition (no AKR1C3 inhibitor), read-out: CTG H460: Avg IC50 (nM) [Assay Condition: DMSO]
In short: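 IC50s in nM come from CellTiter-Glo viability read after 72 h of compound exposure. Compounds went in from 10 mM DMSO stocks onto H460 cells, which had been plated at 3×10^3 per well and grown 24 h beforehand at 37 °C, 5% CO2.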

[2] = system: non-small cell lung cancer cell line H460; assay: H460 proliferation assay in the presence of 3 uM ASP9521 (AKR1C3 specific inhibitor); format: cell-based, human; conditions: H460 cells, CellTiter-Glo, 72 hours, in the presence of 3 uM ASP9521 added 4 hours prior to compounds; read-out: CTG H460: Avg IC50 (nM) [Assay Condition: ASP9521]
In short: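 AKR1C3 blocked with 3 uM ASP9521 given 4 h ahead of test compounds. H460 cells, plated 24 h earlier, were then treated for 72 h at 37 °C in 5% CO2. CellTiter-Glo luminescence gave viability.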

SMILES | IC50 ([1]; Homo sapiens, NCI-H460, 72 h) [nM] | IC50 [2] [nM] | IC50 [1] [nM]
CN1CC(=O)N(c2cccc(Oc3c([N+](=O)[O-])ccc4c3CCC4OP(=O)(N3CC3)N3CC3)c2)CC1=O (stereo not drawn) [Example 122] | 10 to 50 | 3090 | –
O=[N+]([O-])c1ccc2c(c1Oc1cccc(C(F)(F)F)c1)CCC2OP(=O)(N1CC1)N1CC1 (stereo not drawn) [Example 123] | < 10 | 572 | –
O=[N+]([O-])c1ccc2c(c1Oc1cccc(OC(F)(F)F)c1)CCC2OP(=O)(N1CC1)N1CC1 (stereo not drawn) [Example 124] | < 10 | 547 | –
O=[N+]([O-])c1ccc2c(c1Oc1ccccc1)OCCC2OP(=O)(N1CC1)N1CC1 (stereo not drawn) [Example 127, 7-nitro-8-phenoxy-3,4-dihydro-2H-1-benzopyran-4-yl bis(aziridin-1-yl)phosphinate] | 10 to 50 | 291 | –
CN(C)C(=O)c1cccc(Oc2c([N+](=O)[O-])ccc3c2OCCC3OP(=O)(N2CC2)N2CC2)c1 (stereo not drawn) [Example 128] | < 10 | 491 | –
CN(C)C(=O)c1cccc(Oc2c([N+](=O)[O-])ccc3c2OCCC3OP(=O)(N2CC2)N2CC2)c1 (stereo not drawn) [Example 129] | – | 982 | 10 to 50
O=[N+]([O-])c1ccc2c(c1Oc1ccc(-c3ccc(F)cc3)cc1)OCCC2OP(=O)(N1CC1)N1CC1 (stereo not drawn) [Example 132] | < 10 | 1250 | –
O=[N+]([O-])c1ccc2c(c1Oc1ccc(-c3ccc(F)cc3)cc1)OCCC2OP(=O)(N1CC1)N1CC1 (stereo not drawn) [Example 133] | – | 1620 | 10 to 50
O=[N+]([O-])c1ccc2c(c1Oc1ccc(-c3ccccc3)cc1)OCCC2OP(=O)(N1CC1)N1CC1 (stereo not drawn) [Example 134] | 10 to 50 | 1510 | –
O=[N+]([O-])c1ccc2c(c1Oc1ccc(-c3ccccc3)cc1)OCCC2OP(=O)(N1CC1)N1CC1 (stereo not drawn) [Example 135] | – | 482 | < 10
CNC(=O)c1ccc(Oc2c([N+](=O)[O-])ccc3c2OCCC3OP(=O)(N2CC2)N2CC2)cc1 (stereo not drawn) [Example 136] | – | 913 | 50 to 100
CNC(=O)c1ccc(Oc2c([N+](=O)[O-])ccc3c2OCCC3OP(=O)(N2CC2)N2CC2)cc1 (stereo not drawn) [Example 137] | – | 538 | < 10
O=[N+]([O-])c1cc2c(cc1Oc1ccc(-c3ccc(F)cn3)c(F)c1)C(OP(=O)(N1CC1)N1CC1)CC2 (stereo not drawn) [Example 142] | < 10 | 4130 | –
O=[N+]([O-])c1cc2c(cc1Oc1ccc(-c3ccc(F)cn3)c(F)c1)C(OP(=O)(N1CC1)N1CC1)CC2 (stereo not drawn) [Example 143] | – | 1720 | < 10
O=[N+]([O-])c1cc2c(cc1Oc1ccc(-c3ccc(F)cc3)cc1)C(OP(=O)(N1CC1)N1CC1)CC2 (stereo not drawn) [Example 144] | < 10 | 347 | –
O=[N+]([O-])c1cc2c(cc1Oc1ccc(-c3ccc(F)cc3)cc1)C(OP(=O)(N1CC1)N1CC1)CC2 (stereo not drawn) [Example 145] | – | 1120 | < 10
CN(C)C(=O)c1cccc(Oc2cc3c(cc2[N+](=O)[O-])CCC3OP(=O)(N2CC2)N2CC2)c1 (stereo not drawn) [Example 146] | < 10 | 453 | –
CN(C)C(=O)c1cccc(Oc2cc3c(cc2[N+](=O)[O-])CCC3OP(=O)(N2CC2)N2CC2)c1 (stereo not drawn) [Example 147] | – | 311 | < 10
O=[N+]([O-])c1cc2c(cc1Oc1ccc(C3CC3)cc1)C(OP(=O)(N1CC1)N1CC1)CC2 (stereo not drawn) [Example 148] | < 10 | 955 | –
O=[N+]([O-])c1cc2c(cc1Oc1ccc(C3CC3)cc1)C(OP(=O)(N1CC1)N1CC1)CC2 (stereo not drawn) [Example 149] | – | 372 | < 10
CN1Cc2cc(Oc3cc4c(cc3[N+](=O)[O-])CCC4OP(=O)(N3CC3)N3CC3)ccc2C1=O (stereo not drawn) [Example 154] | < 10 | 309 | –
CN1Cc2cc(Oc3cc4c(cc3[N+](=O)[O-])CCC4OP(=O)(N3CC3)N3CC3)ccc2C1=O (stereo not drawn) [Example 155] | – | 128 | < 10
Cn1ccc2ccc(Oc3cc4c(cc3[N+](=O)[O-])CCC4OP(=O)(N3CC3)N3CC3)cc2c1=O (stereo not drawn) [Example 156] | 10 to 50 | 895 | –
Cn1ccc2ccc(Oc3cc4c(cc3[N+](=O)[O-])CCC4OP(=O)(N3CC3)N3CC3)cc2c1=O (stereo not drawn) [Example 157] | – | 1240 | 10 to 50
CN1CCOc2ccc(Oc3cc4c(cc3[N+](=O)[O-])CCC4OP(=O)(N3CC3)N3CC3)cc2C1=O (stereo not drawn) [Example 158] | 50 to 100 | 4680 | –
CN1CCOc2ccc(Oc3cc4c(cc3[N+](=O)[O-])CCC4OP(=O)(N3CC3)N3CC3)cc2C1=O (stereo not drawn) [Example 159] | – | > 10000 | ≥ 100
O=C(c1ccc(Oc2cc3c(cc2[N+](=O)[O-])CCC3OP(=O)(N2CC2)N2CC2)cc1)N1CCOCC1 (stereo not drawn) [Example 160] | < 10 | 270 | –

SMILES | IC50 ([1]; Homo sapiens, NCI-H460, 72 h) [nM] | IC50 [2] [nM] | IC50 [1] [nM]
O=C(c1ccc(Oc2cc3c(cc2[N+](=O)[O-])CCC3OP(=O)(N2CC2)N2CC2)cc1)N1CCOCC1 (stereo not drawn) [Example 161] | – | 339 | < 10
O=C1c2cc(Oc3cc4c(cc3[N+](=O)[O-])CCC4OP(=O)(N3CC3)N3CC3)ccc2CN1C1COC1 (stereo not drawn) [Example 162] | < 10 | 969 | –
O=C1c2cc(Oc3cc4c(cc3[N+](=O)[O-])CCC4OP(=O)(N3CC3)N3CC3)ccc2CN1C1COC1 (stereo not drawn) [Example 163] | – | 1340 | < 10
O=C1OCCN1c1ccc(Oc2cc3c(cc2[N+](=O)[O-])CCC3OP(=O)(N2CC2)N2CC2)cc1 (stereo not drawn) [Example 164] | < 10 | 237 | –
O=C1OCCN1c1ccc(Oc2cc3c(cc2[N+](=O)[O-])CCC3OP(=O)(N2CC2)N2CC2)cc1 (stereo not drawn) [Example 165] | – | 89.7 | < 10
CN1CCc2ccc(Oc3cc4c(cc3[N+](=O)[O-])CCC4OP(=O)(N3CC3)N3CC3)cc2C1=O (stereo not drawn) [Example 166] | 10 to 50 | 976 | –
CN1CCc2ccc(Oc3cc4c(cc3[N+](=O)[O-])CCC4OP(=O)(N3CC3)N3CC3)cc2C1=O (stereo not drawn) [Example 167] | – | 3150 | 10 to 50
Cn1c(=O)oc2cc(Oc3cc4c(cc3[N+](=O)[O-])CCC4OP(=O)(N3CC3)N3CC3)ccc21 (stereo not drawn) [Example 174] | < 10 | 244 | –
Cn1cc(-c2ccc(Oc3cc4c(cc3[N+](=O)[O-])CCC4OP(=O)(N3CC3)N3CC3)cc2)ccc1=O (stereo not drawn) [Example 178] | ≥ 100 | 1630 | –
Cn1cc(-c2ccc(Oc3cc4c(cc3[N+](=O)[O-])CCC4OP(=O)(N3CC3)N3CC3)cc2)ccc1=O (stereo not drawn) [Example 179] | – | 1100 | ≥ 100
Cn1cc(-c2ccc(Oc3cc4c(cc3[N+](=O)[O-])CCC4OP(=O)(N3CC3)N3CC3)cc2)cn1 (stereo not drawn) [Example 180] | < 10 | 1950 | –
Cn1cc(-c2ccc(Oc3cc4c(cc3[N+](=O)[O-])CCC4OP(=O)(N3CC3)N3CC3)cc2)cn1 (stereo not drawn) [Example 181] | – | 942 | < 10
O=[N+]([O-])c1cc2c(cc1Oc1ccc(-c3ccc(Cl)cc3)cc1)C(OP(=O)(N1CC1)N1CC1)CC2 (stereo not drawn) [Example 182] | – | > 10000 | ≥ 100
O=[N+]([O-])c1cc2c(cc1Oc1ccc(-c3ccc(Cl)cc3)cc1)C(OP(=O)(N1CC1)N1CC1)CC2 (stereo not drawn) [Example 183] | – | 1840 | 10 to 50
COc1ccc(-c2ccc(Oc3cc4c(cc3[N+](=O)[O-])CCC4OP(=O)(N3CC3)N3CC3)cc2)cc1 (stereo not drawn) [Example 184] | 10 to 50 | 2640 | –
O=[N+]([O-])c1cc2c(cc1Oc1ccc(-c3cccnc3)cc1)C(OP(=O)(N1CC1)N1CC1)CC2 (stereo not drawn) [Example 187] | 10 to 50 | > 10000 | –
O=C(NC1CCC1)c1ccc(Oc2cc3c(cc2[N+](=O)[O-])CCC3OP(=O)(N2CC2)N2CC2)cc1 (stereo not drawn) [Example 190] | < 10 | 984 | –
O=C(NC1CCC1)c1ccc(Oc2cc3c(cc2[N+](=O)[O-])CCC3OP(=O)(N2CC2)N2CC2)cc1 (stereo not drawn) [Example 191] | – | 661 | < 10
O=[N+]([O-])c1cc2c(cc1Oc1ccc(-c3ccccc3)nc1)C(OP(=O)(N1CC1)N1CC1)CC2 (stereo not drawn) [Example 192] | < 10 | 1090 | –
O=[N+]([O-])c1cc2c(cc1Oc1ccc(-c3ccccc3)nc1)C(OP(=O)(N1CC1)N1CC1)CC2 (stereo not drawn) [Example 193] | – | 880 | < 10
Cn1cnc2ccc(Oc3cc4c(cc3[N+](=O)[O-])CCC4OP(=O)(N3CC3)N3CC3)cc2c1=O (stereo not drawn) [Example 194] | 10 to 50 | 1290 | –
Cn1cnc2ccc(Oc3cc4c(cc3[N+](=O)[O-])CCC4OP(=O)(N3CC3)N3CC3)cc2c1=O (stereo not drawn) [Example 195] | – | 4980 | 10 to 50
O=[N+]([O-])c1cc2c(cc1Oc1ccccc1-c1ccccc1)C(OP(=O)(N1CC1)N1CC1)CC2 (stereo not drawn) [Example 196] | ≥ 100 | 6370 | –
O=[N+]([O-])c1cc2c(cc1Oc1ccccc1-c1ccccc1)C(OP(=O)(N1CC1)N1CC1)CC2 (stereo not drawn) [Example 197] | – | 1760 | ≥ 100
O=[N+]([O-])c1cc2c(cc1Oc1ccc(-c3ccncc3)cc1)C(OP(=O)(N1CC1)N1CC1)CC2 (stereo not drawn) [Example 198] | < 10 | 2230 | –
CN1Cc2ccc(Oc3cc4c(cc3[N+](=O)[O-])OCCC4OP(=O)(N3CC3)N3CC3)cc2C1=O (stereo not drawn) [Example 199, 6-((2-methyl-3-oxoisoindolin-5-yl)oxy)-7-nitrochroman-4-yl di(aziridin-1-yl)phosphinate] | < 10 | 416 | –
CN1CCc2ccc(Oc3cc4c(cc3[N+](=O)[O-])OCCC4OP(=O)(N3CC3)N3CC3)cc2C1=O (stereo not drawn) [Example 200] | 10 to 50 | 434 | –
